Consider 1 compound from patent publication US20010029264A1, “Novel methods and compositions for delivery of taxanes” (priority 1998, published 2001).

Read-outs that look alike come from different tables or passages of the source.

Series [1] has as its system human X-1 mammary tumor xenograft. The settings on record: cited from earlier work.
A short description of series [2]: Oral feasibility PK in dogs (paclitaxel capsules, plasma HPLC). To be noted: for Cmax / Tmax: dog, plasma; for Tmax: read-out: tmax (time of maximum concentration observed). Format: in vivo. As for the experimental part: The formulation was as follows: […]
and was hand filled into single 0 hard gelatin capsules to a dose of approximately 34 mg/capsule.
Capsules were inserted into the esophagus and followed with a brief squirt of water and the animals held until swallowing was observed.

Series [3] relates to IP implanted D16 melanoma. The settings on record: cited from earlier work.
Series [4] can be described thus: Solubilization of paclitaxel in the carrier and appearance of the undiluted formulation. Format: physicochemical.
Procedure: 4.040 g of Vitamin E-TPGS (Eastman Chemical Co., Kingsport, Tenn.) was chipped in and weighed into a 20 ml scintillation vial. 0.514 g of dimethylisosorbide (“DMI”; ARLASOLVE® DMI, ICI Surfactants; Wilmington, Del.) was added to the vial followed by heating to melt the Vitamin E-TPGS/DMI mixture. […] The solution began to clarify and dissolution progressed.
Each formulation was prepared in a 20 ml scintillation vial. The vial was initially tared. CREMOPHOR® EL/citric acid blend (10 g CREMOPHOR® EL, 0.020 g citric acid) was weighed into each of eight (8) tared vials. The weight was recorded. Each vial was subsequently tared and the appropriate weight of dimethylisosorbide (DMI) was added. An additional five (5) vials were also prepared without containing the CREMOPHOR® EL/citric acid blend. […] All vials were individually tared and the appropriate weight of Vitamin E-TPGS was added. At this point, all vials were placed in a 40° C. incubator to liquefy the Vitamin E-TPGS within each sample. After the solutions had liquefied, two samples were removed at a time and placed on a stir/hotplate. One-half inch egg shaped stir bars were added to each scintillation vial.
Large clumps were broken apart easily with a stainless steel spatula. […] This same procedure was repeated for each of the samples.
1.016 g of ethyl alcohol was transferred to a 20 ml scintillation vial containing a stir bar. […]
The mark [5] stands for this setting: male beagle FJF-8, oral, 3 capsules Vitamin E TPGS/DMI formulation, 7.66 mg/kg.
The mark [6] stands for this setting: male beagle IOF-8, oral, 3 capsules Vitamin E TPGS/DMI formulation, 6.88 mg/kg.

Turning to `CC(=O)O[C@H]1C(=O)[C@@]2(C)[C@H]([C@H](OC(=O)c3ccccc3)[C@]3(O)C[C@H](OC(=O)[C@H](O)[C@@H](NC(=O)c4ccccc4)c4ccccc4)C(C)=C1C3(C)C)[C@]1(OC(C)=O)CO[C@@H]1C[C@@H]2O` [paclitaxel], the cytotoxic activity entry in series [1] and in series [3] was “good cytotoxic activity” each time. Besides, the Cmax came out at 108 ng/mL in series [2] (setting [5]); 92 ng/mL in series [2] (setting [6]); 17 ng/mL in series [2] (male, beagle, po, 3.23 mg/kg); 97 ng/mL in series [2] (male, beagle, po, 3.27 mg/kg); 63 ng/mL in series [2] (male, beagle, po, 11.14 mg/kg). The Tmax in series [2] (setting [5]) was 1 h; in series [2] (setting [6]) it was 0.5 h; in series [2] (male, beagle, po, 3.23 mg/kg), 1 h; in series [2] (male, beagle, po, 3.27 mg/kg), 1 h; in series [2] (male, beagle, po, 11.14 mg/kg), 1 h. Also, the “tlast (time of last nonzero concentration observed)” value in series [2] (setting [5]) stood at 8 h; in series [2] (setting [6]), 6 h; in series [2] (male beagle OEF-8, oral, 1 capsule Vitamin E TPGS/DMI formulation, 3.27 mg/kg), 8 h; in series [2] (male beagle OLF-8, oral, 3 capsules Vitamin E TPGS/DMI formulation, 11.14 mg/kg), 8 h; in series [2] (male beagle PXF-8, oral, 1 capsule Vitamin E TPGS/DMI formulation, 3.23 mg/kg) it was 12 h. In series [2] (six male beagles, oral capsules, 3 to 11 mg/kg, plasma to 48 hours postdose), the “detectable plasma levels of intact drug following dosing” value is “Five of the six animals had detectable levels of intact drug”. Besides, the “dissolution of paclitaxel in Methoxy PEG 550 alone” value in series [4] (0.050 g in 0.450 g (Table 3)) was “eventually dissolved”. In series [4] (0.050 g in 0.450 g and 0.100 g in 0.900 g (Table 3)), the “dissolution of paclitaxel in Methoxy PEG 350 alone” value is “quickly dissolved”.
